Test results from PubChem BioAssay AID1963437 (Molecular Pharmacology Branch, DTP, NCI, 2024).
“And” between values parts separate entries of the source, which are not always exact repeats. Equal entries are not always repeated.

Tested on: OVCAR-8 complex spheroid, growth inhibition
Experiment: Anticancer human tumor OVCAR-8 cell line growth inhibition [Asc];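 also: spheroids exposed to agents for 7 days before readout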;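 as to viability, T/C: percent viability relative to DMSO vehicle wells taken as 100%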
Settings: for viability, T/C: stronger effect = lower value
Summary of the method: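 Concentration series start at each agent's clinical Cmax, or at 10 microM when none is established, and drop in half-log steps; agents are applied alone or together to complex spheroids built with HUVEC and hMSC.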

[1] = curve of first compound, second compound 0.0316 µM
[2] = curve of first compound, second compound 0.1 µM
[3] = curve of first compound, second compound 0.316 µM
[4] = curve of first compound, second compound 1 µM
[5] = second compound 0.0316 µM, first compound 0.0316 µM
[6] = second compound 0.0316 µM, first compound 0.1 µM
[7] = second compound 0.0316 µM, first compound 0.316 µM
[8] = second compound 0.0316 µM, first compound 1 µM
[9] = second compound 0.1 µM, first compound 0.0316 µM
[10] = second compound 0.1 µM, first compound 0.1 µM
[11] = second compound 0.1 µM, first compound 0.316 µM
[12] = second compound 0.1 µM, first compound 1 µM
[13] = second compound 0.316 µM, first compound 0.0316 µM
[14] = second compound 0.316 µM, first compound 0.1 µM
[15] = second compound 0.316 µM, first compound 0.316 µM
[16] = second compound 0.316 µM, first compound 1 µM
[17] = second compound 1 µM, first compound 0.0316 µM
[18] = second compound 1 µM, first compound 0.1 µM
[19] = second compound 1 µM, first compound 0.316 µM
[20] = second compound 1 µM, first compound 1 µM

COc1c(OCCCN2CCOCC2)ccc2c3n(c(=NC(=O)c4cnc(N)nc4)nc12)CCN3 + Cc1c(S(C)(=O)=O)c(-c2cc(F)cc(N3CCN(c4ccc(NS(=O)(=O)c5ccc(NC(CCN6CCC(C(=O)OCCCP(=O)(O)O)CC6)CSc6ccccc6)c(S(=O)(=O)C(F)(F)F)c5)cc4)CC3)c2)c(-c2ccc(Cl)cc2)n1C(C)C showed an IC50 [1] of over 1 µM, an IC50 [2] of over 1 µM and an IC50 [3] of over 1 µM. The IC50 [4] was over 1 µM, the IC50 (curve of first compound, second compound 3.16 µM) was over 1 µM and the IC50 (curve of first compound, second compound 10 µM) was over 1 µM. For the same molecule, the viability, T/C (second compound 0.0316 µM, first compound 0.00316 µM) was 114%, the viability, T/C (second compound 0.0316 µM, first compound 0.01 µM) was 104% and the viability, T/C [5] was 128%. The viability, T/C [6] was 150%, the viability, T/C [7] was 149% and the viability, T/C [8] was 82.2%. For the same molecule, the viability, T/C (second compound 0.1 µM, first compound 0.00316 µM) was 100%, the viability, T/C (second compound 0.1 µM, first compound 0.01 µM) was 107% and the viability, T/C [9] was 142%. The viability, T/C [10] was 161%, the viability, T/C [11] was 145% and the viability, T/C [12] was 85.9%. For the same molecule, the viability, T/C (second compound 0.316 µM, first compound 0.00316 µM) was 91.6%, the viability, T/C (second compound 0.316 µM, first compound 0.01 µM) was 121% and the viability, T/C [13] was 154%. The viability, T/C [14] was 146%, the viability, T/C [15] was 140% and the viability, T/C [16] was 85.8%. The viability, T/C (second compound 1 µM, first compound 0.00316 µM) was 114%, the viability, T/C (second compound 1 µM, first compound 0.01 µM) was 119% and the viability, T/C [17] was 167%. The viability, T/C [18] was 181%, the viability, T/C [19] was 142% and the viability, T/C [20] was 82.8%. It also gave a viability, T/C (second compound 3.16 µM, first compound 0.00316 µM) of 144%, a viability, T/C (second compound 3.16 µM, first compound 0.01 µM) of 98.8% and a viability, T/C (second compound 3.16 µM, first compound 0.0316 µM) of 136%. For the same molecule, the viability, T/C (second compound 3.16 µM, first compound 0.1 µM) was 170%, the viability, T/C (second compound 3.16 µM, first compound 0.316 µM) was 135% and the viability, T/C (second compound 3.16 µM, first compound 1 µM) was 64.2%. The viability, T/C (second compound 10 µM, first compound 0.00316 µM) was 131%, the viability, T/C (second compound 10 µM, first compound 0.01 µM) was 141% and the viability, T/C (second compound 10 µM, first compound 0.0316 µM) was 146%. It also gave a viability, T/C (second compound 10 µM, first compound 0.1 µM) of 189%, a viability, T/C (second compound 10 µM, first compound 0.316 µM) of 143% and a viability, T/C (second compound 10 µM, first compound 1 µM) of 76.2%.

For O=C(c1cc(Cc2n[nH]c(=O)c3ccccc23)ccc1F)N1CCN(C(=O)C2CC2)CC1 + CNC(C)C(=O)NC1CN(S(=O)(=O)c2cccc(S(=O)(=O)N3CCC4CCC(C(=O)NC(c5ccccc5)c5ccccc5)N4C(=O)C(NC(=O)C(C)NC)C3)c2)CCC2CCC(C(=O)NC(c3ccccc3)c3ccccc3)N2C1=O, the IC50 (curve of first compound, second compound 0.00316 µM) was under 0.0316 µM, the IC50 (curve of first compound, second compound 0.01 µM) was over 10 µM and the IC50 [1] was over 10 µM. The IC50 [2] was over 10 µM, the IC50 [3] was 9.9 µM and the IC50 [4] was 6.84 µM. For the same molecule, the viability, T/C (second compound 0.00316 µM, first compound 0.0316 µM) was 0.81%, the viability, T/C (second compound 0.00316 µM, first compound 0.1 µM) was 1.08% and the viability, T/C (second compound 0.00316 µM, first compound 0.316 µM) was 0.69%. It also gave a viability, T/C (second compound 0.00316 µM, first compound 1 µM) of 1.07%, a viability, T/C (second compound 0.00316 µM, first compound 3.16 µM) of 1.9% and a viability, T/C (second compound 0.00316 µM, first compound 10 µM) of 0.51%. The viability, T/C (second compound 0.01 µM, first compound 0.0316 µM) was 111%, the viability, T/C (second compound 0.01 µM, first compound 0.1 µM) was 102% and the viability, T/C (second compound 0.01 µM, first compound 0.316 µM) was 101%. For the same molecule, the viability, T/C (second compound 0.01 µM, first compound 1 µM) was 110%, the viability, T/C (second compound 0.01 µM, first compound 3.16 µM) was 112% and the viability, T/C (second compound 0.01 µM, first compound 10 µM) was 79.2%. The viability, T/C [5] was 94%, the viability, T/C [6] was 99.3% and the viability, T/C [7] was 101%. The viability, T/C [8] was 94.7%, the viability, T/C (second compound 0.0316 µM, first compound 3.16 µM) was 103% and the viability, T/C (second compound 0.0316 µM, first compound 10 µM) was 87%. The viability, T/C [9] was 80.3%, the viability, T/C [10] was 86.4% and the viability, T/C [11] was 88.6%. It also gave a viability, T/C [12] of 101%, a viability, T/C (second compound 0.1 µM, first compound 3.16 µM) of 83.9% and a viability, T/C (second compound 0.1 µM, first compound 10 µM) of 79.1%. For the same molecule, the viability, T/C [13] was 83.7%, the viability, T/C [14] was 100% and the viability, T/C [15] was 90.4%. The viability, T/C [16] was 82.4%, the viability, T/C (second compound 0.316 µM, first compound 3.16 µM) was 90.9% and the viability, T/C (second compound 0.316 µM, first compound 10 µM) was 49.7%. It also gave a viability, T/C [17] of 79.2%, a viability, T/C [18] of 90.7% and a viability, T/C [19] of 99.5%. It also gave a viability, T/C [20] of 90.3%, a viability, T/C (second compound 1 µM, first compound 3.16 µM) of 92.5% and a viability, T/C (second compound 1 µM, first compound 10 µM) of 29.8%.

For NC1CCC(NC2CC2c2ccccc2)CC1 (stereo not given), the viability, T/C (compound 0.000316 µM) was 94.7% and 96.7% and 105%, the viability, T/C (compound 0.001 µM) was 87.7% and 82.6% and 99.8% and the viability, T/C (compound 0.00316 µM) was 83.1% and 85.2% and 104%. The viability, T/C (compound 0.01 µM) was 104% and 81.5% and 119%, the viability, T/C (compound 0.0316 µM) was 113% and 98.7% and 95% and the viability, T/C (compound 0.1 µM) was 83% and 91.6% and 115%. The IC50 (curve of compound) was over 0.1 µM.

C=CC(=O)N1CCN(c2nc(=O)n(-c3c(C)ccnc3C(C)C)c3nc(-c4c(O)cccc4F)c(F)cc23)C(C)C1 (stereo not given) + CCN1C(C(=O)NC23CCC(C(=O)O)(CC2)CC3)C(c2cccc(Cl)c2F)C2(C(=O)Nc3cc(Cl)ccc32)C12CCCCC2 gave an IC50 (curve of first compound, second compound 0.00949 µM) of over 10 µM, an IC50 (curve of first compound, second compound 0.03 µM) of over 10 µM and an IC50 (curve of first compound, second compound 0.0949 µM) of over 10 µM. The IC50 (curve of first compound, second compound 0.3 µM) was over 10 µM, the IC50 (curve of first compound, second compound 0.949 µM) was over 10 µM and the IC50 (curve of first compound, second compound 3 µM) was over 10 µM. It also gave a viability, T/C (second compound 0.00949 µM, first compound 0.0316 µM) of 94.2%, a viability, T/C (second compound 0.00949 µM, first compound 0.1 µM) of 89.9% and a viability, T/C (second compound 0.00949 µM, first compound 0.316 µM) of 94.7%. For the same molecule, the viability, T/C (second compound 0.00949 µM, first compound 1 µM) was 81.7%, the viability, T/C (second compound 0.00949 µM, first compound 3.16 µM) was 89.3% and the viability, T/C (second compound 0.00949 µM, first compound 10 µM) was 100%. The viability, T/C (second compound 0.03 µM, first compound 0.0316 µM) was 101%, the viability, T/C (second compound 0.03 µM, first compound 0.1 µM) was 90.6% and the viability, T/C (second compound 0.03 µM, first compound 0.316 µM) was 85.3%. The viability, T/C (second compound 0.03 µM, first compound 1 µM) was 76.8%, the viability, T/C (second compound 0.03 µM, first compound 3.16 µM) was 102% and the viability, T/C (second compound 0.03 µM, first compound 10 µM) was 102%. It also gave a viability, T/C (second compound 0.0949 µM, first compound 0.0316 µM) of 101%, a viability, T/C (second compound 0.0949 µM, first compound 0.1 µM) of 78.6% and a viability, T/C (second compound 0.0949 µM, first compound 0.316 µM) of 88%. It also gave a viability, T/C (second compound 0.0949 µM, first compound 1 µM) of 74.2%, a viability, T/C (second compound 0.0949 µM, first compound 3.16 µM) of 86.1% and a viability, T/C (second compound 0.0949 µM, first compound 10 µM) of 116%. For the same molecule, the viability, T/C (second compound 0.3 µM, first compound 0.0316 µM) was 88%, the viability, T/C (second compound 0.3 µM, first compound 0.1 µM) was 96.7% and the viability, T/C (second compound 0.3 µM, first compound 0.316 µM) was 86.3%. The viability, T/C (second compound 0.3 µM, first compound 1 µM) was 93.7%, the viability, T/C (second compound 0.3 µM, first compound 3.16 µM) was 88.2% and the viability, T/C (second compound 0.3 µM, first compound 10 µM) was 106%. The viability, T/C (second compound 0.949 µM, first compound 0.0316 µM) was 87.3%, the viability, T/C (second compound 0.949 µM, first compound 0.1 µM) was 103% and the viability, T/C (second compound 0.949 µM, first compound 0.316 µM) was 102%. It also gave a viability, T/C (second compound 0.949 µM, first compound 1 µM) of 90.8%, a viability, T/C (second compound 0.949 µM, first compound 3.16 µM) of 104% and a viability, T/C (second compound 0.949 µM, first compound 10 µM) of 115%. The viability, T/C (second compound 3 µM, first compound 0.0316 µM) was 124%, the viability, T/C (second compound 3 µM, first compound 0.1 µM) was 103% and the viability, T/C (second compound 3 µM, first compound 0.316 µM) was 101%. For the same molecule, the viability, T/C (second compound 3 µM, first compound 1 µM) was 106%, the viability, T/C (second compound 3 µM, first compound 3.16 µM) was 120% and the viability, T/C (second compound 3 µM, first compound 10 µM) was 137%.

For COc1c(OCCCN2CCOCC2)ccc2c3n(c(=NC(=O)c4cnc(N)nc4)nc12)CCN3, the viability, T/C (compound 0.00316 µM) was 98.2% and 94.8% and 108%, the viability, T/C (compound 0.01 µM) was 111% and 110% and 109% and the viability, T/C (compound 0.0316 µM) was 120% and 123% and 130%. For the same molecule, the viability, T/C (compound 0.1 µM) was 167% and 133% and 157%, the viability, T/C (compound 0.316 µM) was 134% and 141% and 143% and the viability, T/C (compound 1 µM) was 77% and 89.5% and 94.5%. The IC50 (curve of compound) was over 1 µM.
